# Source: patent US20220112479A1, “COMPOUNDS STABILIZING AMYLASES IN LIQUIDS” (BASF SE, priority 2018, published 2022)
# Tests used:
# Amy2=Amplify = assay: amylase storage stability in liquid formulation (pNP release from Ethyliden-blocked-pNPG7); format: biochemical; design: key: % of activity in reference formulation at time 0; conditions: storage at 37° C.
# Method: (§1) The storage stability of amylase was assessed at 37° C. Base test formulations were manufactured by making base formulations I to V by mixing the components according to Table 1. Amylases used: Amy1=Stainzyme, Amy2=Amplify, Amy3=Stainzyme Plus L (12L) The respective component (a) or comparative compound was added, if applicable, to the respective base formulation in amounts as indicated in Table 1. The amount of amylase as provided in Table 1 refers to active protein. Water was added to accomplish the balance to 100. […] Amylase activity at certain points in time as indicated in Table 2 was measured quantitatively by the release of the chromophore para-nitrophenol (pNP) from the substrate ([…]-blocked-pNPG7, Roche Applied Science 10880078103). The alpha-amylase degrades the substrate into smaller molecules and α-glucosidase (Roche Applied Science 11626329103), which is present in excess compared to the amylase, process these smaller products until pNP is released; the release of pNP, measured via an increase of absorption at 405 nm, is directly proportional to the amylase activity of the sample. Amylase standard: […] 120 L (Sigma 3403). […] The amylolytic activity values provided were calculated referring to the value determined in the reference formulation at the time 0. The nomenclature of formulations is as follows: the Roman number before the full stop characterizes the base formulation, the Arabian number the type of compound (A.# compound according to invention (component (a)); B.# comparative compound).
# Amy1=Stainzyme = assay: as above; format: biochemical; design: key: % of activity in reference formulation at time 0; conditions: storage at 37° C.
# Method: as §1
# [1] = base formulation III., 1.5 wt % component (a), 3 d
# [2] = base formulation III., 1.5 wt % component (a), 7 d
# [3] = base formulation III., 1.5 wt % component (a), 14 d
# [4] = base formulation III., 1.5 wt % component (a), 21 d
# [5] = base formulation III., 1.5 wt % component (a), 28 d
# [6] = base formulation III., 1.5 wt % component (a), 42 d
# [7] = base formulation III., 1.5 wt % component (a), T0
# [8] = base formulation V., 2.0 wt % component (a), 3 d
# [9] = base formulation V., 2.0 wt % component (a), 7 d
# [10] = base formulation V., 2.0 wt % component (a), 14 d
# [11] = base formulation V., 2.0 wt % component (a), 21 d
# [12] = base formulation V., 2.0 wt % component (a), 28 d
# [13] = base formulation V., 2.0 wt % component (a), 42 d
# [14] = base formulation V., 2.0 wt % component (a), T0
# [15] = base formulation I., 1.5 wt % component (a), 3 d
# [16] = base formulation I., 1.5 wt % component (a), 7 d
# [17] = base formulation I., 1.5 wt % component (a), 14 d
# [18] = base formulation I., 1.5 wt % component (a), 21 d
# [19] = base formulation I., 1.5 wt % component (a), 28 d
# [20] = base formulation I., 1.5 wt % component (a), 42 d
# [21] = base formulation I., 1.5 wt % component (a), T0
# [22] = base formulation IV., 2.0 wt % component (a), 3 d
# [23] = base formulation IV., 2.0 wt % component (a), 7 d
# [24] = base formulation IV., 2.0 wt % component (a), 14 d
# [25] = base formulation IV., 2.0 wt % component (a), 21 d
# [26] = base formulation IV., 2.0 wt % component (a), 28 d
# [27] = base formulation IV., 2.0 wt % component (a), 42 d
# [28] = base formulation IV., 2.0 wt % component (a), T0
Compound,"amylase activity, referring to reference formulation at time 0 (Amy2=Amplify; [1])","amylase activity, referring to reference formulation at time 0 (Amy2=Amplify; [2])","amylase activity, referring to reference formulation at time 0 (Amy2=Amplify; [3])","amylase activity, referring to reference formulation at time 0 (Amy2=Amplify; [4])","amylase activity, referring to reference formulation at time 0 (Amy2=Amplify; [5])","amylase activity, referring to reference formulation at time 0 (Amy2=Amplify; [6])","amylase activity, referring to reference formulation at time 0 (Amy2=Amplify; [7])","amylase activity, referring to reference formulation at time 0 (Amy2=Amplify; [8])","amylase activity, referring to reference formulation at time 0 (Amy2=Amplify; [9])","amylase activity, referring to reference formulation at time 0 (Amy2=Amplify; [10])","amylase activity, referring to reference formulation at time 0 (Amy2=Amplify; [11])","amylase activity, referring to reference formulation at time 0 (Amy2=Amplify; [12])","amylase activity, referring to reference formulation at time 0 (Amy2=Amplify; [13])","amylase activity, referring to reference formulation at time 0 (Amy1=Stainzyme; [15])","amylase activity, referring to reference formulation at time 0 (Amy1=Stainzyme; [16])","amylase activity, referring to reference formulation at time 0 (Amy1=Stainzyme; [17])","amylase activity, referring to reference formulation at time 0 (Amy1=Stainzyme; [18])","amylase activity, referring to reference formulation at time 0 (Amy1=Stainzyme; [19])","amylase activity, referring to reference formulation at time 0 (Amy1=Stainzyme; [20])","amylase activity, referring to reference formulation at time 0 (Amy1=Stainzyme; [21])",other results
"CCOC(=O)CC(O)(CC(=O)OCC)C(=O)OCC [A.1, Triethylcitrate]",98,95,91,86,78,68,100,96,91,87,80,73,62,98,93,88,80,74,61,100,"amylase activity, referring to reference formulation at time 0 (Amy2=Amplify; [14]): 98; amylase activity, referring to reference formulation at time 0 (Amy1=Stainzyme; [22]): 96; amylase activity, referring to reference formulation at time 0 (Amy1=Stainzyme; [23]): 92; amylase activity, referring to reference formulation at time 0 (Amy1=Stainzyme; [24]): 88; amylase activity, referring to reference formulation at time 0 (Amy1=Stainzyme; [25]): 83; amylase activity, referring to reference formulation at time 0 (Amy1=Stainzyme; [26]): 73; amylase activity, referring to reference formulation at time 0 (Amy1=Stainzyme; [27]): 61; amylase activity, referring to reference formulation at time 0 (Amy1=Stainzyme; [28]): 98"
"CCCOC(=O)CC(O)(CC(=O)OCCC)C(=O)OCCC [A.2, Tripropylcitrate]",102,97,93,87,81,71,100,95,90,84,76,66,54,100,96,90,84,79,66,101,"amylase activity, referring to reference formulation at time 0 (Amy2=Amplify; [14]): 98"
"CCOC(=O)CC(CC(=O)OCC)(OC(C)=O)C(=O)OCC [A.5, Acetyltriethylcitrate]",96,92,87,78,71,55,96,–,–,–,–,–,–,91,80,72,63,55,37,97,–
Diethylcitrate [A.7],96,91,85,78,70,60,98,96,87,74,63,55,47,96,86,81,74,63,50,99,"amylase activity, referring to reference formulation at time 0 (Amy2=Amplify; [14]): 98; amylase activity, referring to reference formulation at time 0 (Amy1=Stainzyme; [22]): 94; amylase activity, referring to reference formulation at time 0 (Amy1=Stainzyme; [23]): 88; amylase activity, referring to reference formulation at time 0 (Amy1=Stainzyme; [24]): 82; amylase activity, referring to reference formulation at time 0 (Amy1=Stainzyme; [25]): 74; amylase activity, referring to reference formulation at time 0 (Amy1=Stainzyme; [26]): 63; amylase activity, referring to reference formulation at time 0 (Amy1=Stainzyme; [27]): 52; amylase activity, referring to reference formulation at time 0 (Amy1=Stainzyme; [28]): 99"
